Reference: patent publication US20220193063A1, “METABOLITES OF GLP1R AGONISTS” (Pfizer Inc., priority 2020, published 2022)

Legend:
[1] = tested on: Male CD-1 mouse hepatocytes; assay: In vitro metabolism of Compound 1 in mouse cryopreserved hepatocytes; format: in vitro ADME; settings: 10 μM Compound 1, 7.5×10^5 cells/mL, 1 and 4 hrs composite sample, HPLC/UV/MS
Experimental: (§1) Male CD-1 mouse hepatocytes (lot YHL), male Wistar-Han rat hepatocytes (Celsis; product number: M000065; lot: SLA), female New Zealand rabbit hepatocytes (lot 1510147), male cryopreserved cynomolgus monkey hepatocytes (Celsis; product number: M00305; lot: DNB) and mixed-gender cryopreserved human hepatocytes (Bioreclamation; product number: S01988; lot: DCM) were obtained for the hepatocyte in-vitro assessments.
(§2) At time 0 hrs 550 μL aliquots were removed from incubations and quenched with 5 volumes of ACN containing 0.1% formic acid. At 1 and 4 hrs, 275 μL aliquots were removed and quenched as above; these were combined in the same tube to prepare a composite sample. For all hepatocyte experiments, samples were processed by centrifugation at 1900×g for 5 minutes, and then the supernatant was transferred to clean glass tubes and evaporated to dryness under a stream of N2 using a Turbovap at 37° C. Sample residues were reconstituted in mobile phase prior to analysis by HPLC/UV/MS^n.
(§3) Samples were analyzed by HPLC/UV/MS^n using a Thermo Orbitrap Elite mass spectrometer in conjunction with a Thermo Open Accela UHPLC system. A 3.0×150 mm, 2.5 μm Acquity CSH C18 HPLC column (Waters) was heated to 45° C. for separation of analytes. The mobile phase was a gradient of A): water containing 0.1% formic acid, and B): acetonitrile. The flow rate was 450 μL/min, and the following gradient program was utilized: […]
(§4) UV absorbance was monitored with a photo-diode array detector from 220-450 nm. The mass spectrometer was operated in positive-ion mode with a HESI ion source at a potential of 3.0 kV, and capillary and source heater temperatures of 380 and 300° C., respectively. Sheath, auxiliary, and sweep gas flows were set to 45, 10, and 2 units, respectively. Full scan mass spectra were acquired over the range 120-1200 m/z at a resolving power of 30,000 (specified at m/z 400). Data-dependent MS^n spectra were acquired in an automated fashion at 15,000 resolving power using CID and HCD fragmentation with normalized collision energy settings of 28 and 65 V, respectively.
(§5) Metabolites were characterized by comparisons of mass spectral fragmentation patterns with that of a Compound 1 standard. All HPLC/UV/MS^n data were processed using Xcalibur v. 2.2, and integrated UV peak areas were subjected to weighted UV binning procedures utilizing an Excel template.

[2] = tested on: male Wistar-Han rat hepatocytes; assay: In vitro metabolism of Compound 1 in rat cryopreserved hepatocytes; format: in vitro ADME; settings: 10 μM Compound 1, 7.5×10^5 cells/mL, 1 and 4 hrs composite sample, HPLC/UV/MS
Experimental: as §1, §2, §3, §4, §5

[3] = tested on: female New Zealand rabbit hepatocytes; assay: In vitro metabolism of Compound 1 in rabbit cryopreserved hepatocytes; format: in vitro ADME; settings: 10 μM Compound 1, 7.5×10^5 cells/mL, 1 and 4 hrs composite sample, HPLC/UV/MS
Experimental: as §1, §2, §3, §4, §5

[4] = tested on: male cryopreserved cynomolgus monkey hepatocytes; assay: In vitro metabolism of Compound 1 in monkey cryopreserved hepatocytes; format: in vitro ADME; settings: 10 μM Compound 1, 7.5×10^5 cells/mL, 1 and 4 hrs composite sample, HPLC/UV/MS
Experimental: as §1, §2, §3, §4, §5

[5] = tested on: mixed-gender cryopreserved human hepatocytes; assay: In vitro metabolism of Compound 1 in human cryopreserved hepatocytes; format: in vitro ADME; settings: 10 μM Compound 1, 7.5×10^5 cells/mL, 1 and 4 hrs composite sample, HPLC/UV/MS
Experimental: as §1, §2, §3, §4, §5

[6] = tested on: human co-cultured hepatocytes (Hepatopack); assay: In vitro metabolism of Compound 1 in human micropatterned co-cultured hepatocytes (Hepatopack); format: in vitro ADME; settings: Compound 1 tris salt 20 μM, human MPCC hepatocytes, 0, 2 and 7 days
Excerpt: Micro-patterned co-cultured (MPCC) hepatocyte 24-well plates containing human donors (16 wells each) were provided by Ascendance Biotechnology (formerly Hepregen Corp. (Medford, Mass.). [see Wang W W W, Khetani S R, Krzyzewski S, et al. Assessment of a Micropatterned Hepatocyte Coculture System to Generate Major Human Excretory and Circulating Drug Metabolites. Drug Metab Dispos 2010; 38(10):1900-51 The MPCCs were created at Ascendance Biotechnology and maintained in serum containing medium for 5-6 days to allow for stabilization of the co-cultures prior to shipment. A mixed-gender cryopreserved pool of 10 human donors (X008001-P; lot YFA) was used to seed the plates and was purchased from BioreclamationlVT (Westbury, N.Y.). MPCC hepatocytes are plated with fibroblasts in a 1:3 ratio with ˜25,000 hepatocytes/well in a 24-well plate. 24-Well MPCC plates were shipped to Pfizer, fresh medium (400 μL/well) was applied and cultures were kept at 37° C. with […] and 95% relative humidity for two days. Micropatterned co-cultures containing pooled hepatocytes were allowed 7 days to fully stabilize with respect to liver-specific functions. […] At respective time points (0, 2, and 7 days), the culture medium was removed and mixed with 4 volumes of ACN, then stored frozen at −40° C. until samples could be analyzed. Samples were subsequently processed by the addition of 2.5 mL of 1:1 ACN:MeOH containing 0.1% formic acid. After vortexing, the samples were centrifuged at 1900×g for 5 min, then the supernatant was transferred to 15 mL conical tubes and evaporated under N2 using a Turbovap set at 37° C. The residues were reconstituted in mobile phase (5:95 v:v ACN:0.1% aqueous formic acid) prior to analysis by HPLC/UV/MS^n.
as §3
as §4, with “Data-dependent MS^n spectra were acquired in an automated fashion at 15,000 resolving power using CID and HCD fragmentation with normalized collision energy settings of 28 and 65 V, respectively.” left out

[7] = Circulating metabolites of Compound 1 in rat plasma following a 1.0 mg/kg IV bolus dose; format: in vivo; settings: 1.0 mg/kg IV bolus dose of Compound 1, pooled plasma 0.033-24 hrs, male rats
Experimental: (§6) Plasma and bile samples were obtained from a bile duct cannulated rat experiment (Study PK-0111) in which a 1.0 mg/kg IV bolus dose was administered to fed male rats (N=3). No control plasma was available from this experiment.
Clin Pharmacol Ther 1981; 29(3):408-13]. The entire volume of each replicate Hamilton pool was combined to create a single pooled sample (576 μL) for analysis.
(§7) Pooled plasma and bile samples were extracted with ACN containing 0.1% formic acid, and after centrifugation at 1900×g, the supernatant was transferred to clean tubes and evaporated under N2 in a Turbovap set at 37° C. Residues were reconstituted in mobile phase (5:95 v:v ACN:0.1% aqueous formic acid) prior to analysis by HPLC/UV/MS^n.
as §3, §4, §5

[8] = Metabolites of Compound 1 in rat bile following a 1.0 mg/kg IV bolus dose (bile duct cannulated rat); format: in vivo; settings: 1.0 mg/kg IV bolus dose of Compound 1, pooled bile 0-24 hrs, bile duct cannulated male rats
Experimental: as §6
Bile samples (0-3, 3-7, and 7-24 hrs) from individual animals were pooled in proportion to the amount collect in each interval. Then 0.5 mL of each individual pool was combined to prepare a composite sample for analysis.
as §7, §3, §4, §5

human GLP-1R = human GLP-1R (Homo sapiens, UniProt P43220, L260F); assay: CHO GLP-1R Clone C6 - Assay 2 (HTRF cAMP agonist assay, low receptor density)
Chain of human GLP-1R (P43220 24-463 L260F): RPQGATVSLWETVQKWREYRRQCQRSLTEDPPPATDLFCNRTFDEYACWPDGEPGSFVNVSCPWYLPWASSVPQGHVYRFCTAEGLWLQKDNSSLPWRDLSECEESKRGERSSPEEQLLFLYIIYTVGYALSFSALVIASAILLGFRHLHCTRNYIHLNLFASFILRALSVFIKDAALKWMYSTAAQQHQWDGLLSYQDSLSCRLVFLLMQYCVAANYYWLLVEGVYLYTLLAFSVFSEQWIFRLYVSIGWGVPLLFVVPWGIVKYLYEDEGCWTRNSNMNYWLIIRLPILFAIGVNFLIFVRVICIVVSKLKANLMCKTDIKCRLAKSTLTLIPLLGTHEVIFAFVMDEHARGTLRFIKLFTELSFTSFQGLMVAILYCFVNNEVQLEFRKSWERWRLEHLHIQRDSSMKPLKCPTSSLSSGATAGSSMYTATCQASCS
Experimental: GLP-1R-mediated agonist activity was determined with a cell-based functional assay utilizing an HTRF (Homogeneous Time-Resolved Fluorescence) cAMP detection kit (cAMP HI Range Assay Kit; Cis Bio cat #62AM6PEJ) that measures cAMP levels in the cell. The method is a competitive immunoassay between native cAMP produced by the cells and exogenous cAMP labeled with the dye d2. The tracer binding is visualized by a mAb anti-cAMP labeled with Cryptate. The specific signal (i.e. energy transfer) is inversely proportional to the concentration of cAMP in either a standard or an experimental sample. […]
After 48 hours, the growth media was removed from the assay plate wells, and the cells were treated with 20 μL of the serially diluted compound in assay buffer for 30 minutes at 37° C. in a humidified environment (95% O2, 5% CO2). […] The plates were then incubated at room temperature and after 60 minutes, changes in the HTRF signal were read with an Envision 2104 multi-label plate reader using excitation of 330 nm and emissions of 615 and 665 nm. Raw data were converted to nM cAMP by interpolation from a cAMP standard curve (as described in the manufacturer's assay protocol) and the percent effect was determined relative to a saturating concentration of the full agonist GLP-1 (1 μM) included on each plate. […]

metabolite of Compound 1 observed in mouse hepatocyte incubations [1]: observed | metabolite of Compound 1 observed in rat hepatocyte incubations [2]: observed | metabolite of Compound 1 observed in rabbit hepatocyte incubations [3]: observed | metabolite of Compound 1 observed in monkey hepatocyte incubations [4]: observed | metabolite of Compound 1 observed in human hepatocyte incubations [5]: observed | metabolite of Compound 1 observed in human hepatocyte incubations ([5]; listed as m/z 751b): most abundant metabolites | metabolite of Compound 1 observed in human Hepatopack system [6]: most abundant metabolites | detected in rat plasma [7]: observed | detected in rat plasma ([7]; listed as m/z 751b): detected | detected in rat bile [8]: observed | detected in rat bile ([8]; listed as m/z 751b): detected | EC50 (human GLP-1R): 170 nM
Compound: C[C@]1(c2ccc(Cl)cn2)Oc2cccc(C3CCN(Cc4nc5ccc(C(=O)O[C@@H]6O[C@H](C(=O)O)[C@@H](O)[C@H](O)[C@H]6O)cc5n4C[C@@H]4CCO4)CC3)c2O1 [Metabolite 751b]
